This is an account of results in ChEMBL document CHEMBL5257089, “Gamabufotalin Induces Apoptosis and Cytoprotective Autophagy through the mTOR Signaling Pathway in Hepatocellular Carcinoma” (J Nat Prod, 2023).

In series [1] the test system is Hep 3B2. Nature of the series: Induction of apoptosis in human Hep3B cells assessed as late apoptotic cells at 10 nM incubated for 48 hrs by Annexin V-FITC/PI staining based flow cytometry method (reference value: 3.5%). It is filed as functional. In general terms: Flow cytometry measures light scatter and fluorescence of single cells or particles in a stream.
The test system of series [2] is Hep 3B2. Kind of series: Induction of apoptosis in human Hep3B cells assessed as increase in PARP level at 10 nM incubated for 48 hrs in presence of gamabufotalin by immunoblot analysis. It is filed as functional, cell-based. (In general: In western blotting, separated proteins are transferred to a membrane and probed.)
Series [3] relates to Hep 3B2. Nature of the series: Induction of apoptosis in human Hep3B cells assessed as increase in cleaved PARP level at 10 nM incubated for 48 hrs in presence of gamabufotalin by immunoblot analysis. In kind it is functional, cell-based.
Series [4] has as its system Huh-7. Kind of series: Induction of autophagy in human Huh-7 cells assessed as rescue of mTOR phosphorylation level at upto 10 nM incubated for 48 hrs in presence of gamabufotalin by immunoblot method. It is filed as functional, cell-based.
Series [5] deals with Hep 3B2. Nature of the series: Induction of autophagy in human Hep3B cells assessed as downregulation of LC3II/LC3I ratio at 25 uM incubated for 48 hrs in presence of 4,6-dimorpholino-N-(4-nitrophenyl)-1,3,5-triazin-2-amine by immunoblot analysis. In kind it is functional, cell-based.
For series [6], the system named is Huh-7. Kind of series: Induction of apoptosis in human Huh-7 cells assessed as late apoptotic cells at 25 nM incubated for 48 hrs by Annexin V-FITC/PI staining based flow cytometry method (reference value: 3.8%). It is filed as functional.
Series [7] concerns Hep 3B2. Kind of series: Induction of apoptosis in human Hep3B cells assessed as condensed nuclei at […] incubated for 48 hrs by Hoechst33258 staining based fluorescence microscopy. It is filed as functional, cell-based.
The test system of series [8] is Hep 3B2. Kind of series: Antitumor activity against human Hep3B cells xenografted in nude mouse model assessed as upregulation of cleaved caspase-3 expression at 5 mg/kg,ip administered every second day for 3 weeks by Western blot analysis. It is filed as functional, organism-based.
The test system of series [9] is Huh-7. Kind of series: Induction of autophagy in human Huh-7 cells assessed as upregulation of p62 at 25 uM incubated for 48 hrs in presence of 4,6-dimorpholino-N-(4-nitrophenyl)-1,3,5-triazin-2-amine by immunoblot analysis. In kind it is functional, cell-based.
Series [10] concerns Huh-7. Kind of series: Induction of apoptosis in human Huh-7 cells assessed as increase in caspase-3 level at 25 nM incubated for 48 hrs in presence of chloroquine by immunoblot analysis. It is filed as functional, cell-based.
Series [11] relates to Huh-7. Kind of series: Induction of apoptosis in human Huh-7 cells assessed as viable cells at 25 nM measured after 48 hrs by annexin V-FITC/Propidium iodide staining based flow cytometric analysis (reference value: 91.7%). It is filed as functional. To be noted: read-out: Activity.
Series [12] deals with Hep 3B2. Nature of the series: Induction of apoptosis in human Hep3B cells assessed as viable cells at 25 nM incubated for 48 hrs by Annexin V-FITC/PI staining based flow cytometry method (Rvb =95.7%). The following applies: read-out: Activity. In kind it is functional.
In series [13] the test system is Huh-7. Kind of series: Induction of apoptosis in human Huh-7 cells assessed as viable cells at 25 nM measured after 48 hrs in presence of z-VAD-FMK by annexin V-FITC/Propidium iodide staining based flow cytometric analysis (reference value: 91.7%). The following applies: read-out: Activity. It is filed as functional.
In series [14] the test system is Huh-7. Nature of the series: Induction of apoptosis in human Huh-7 cells assessed as late apoptotic cells at 25 nM measured after 48 hrs in presence of z-VAD-FMK by annexin V-FITC/Propidium iodide staining based flow cytometric analysis (reference value: 6.1%). It is filed as functional.
Series [15] has as its system Huh-7. Nature of the series: Induction of apoptosis in human Huh-7 cells assessed as early apoptotic cells at 25 nM measured after 48 hrs by annexin V-FITC/Propidium iodide staining based flow cytometric analysis (reference value: 2.2%). It is filed as functional.
Series [16] concerns Hep 3B2. Nature of the series: Induction of apoptosis in human Hep3B cells assessed as fragmented nuclei at […] incubated for 48 hrs by Hoechst33258 staining based fluorescence microscopy. It is filed as functional, cell-based.
In series [17] the test system is Hep 3B2. Kind of series: Induction of autophagic flux in human Hep3B cells assessed as increase in high electron density vesicles at 25 nM incubated for 48 hrs by transmission electron microscopic analysis. In kind it is functional, cell-based.
Series [18] concerns Huh-7. Nature of the series: Induction of autophagic flux in human Huh-7 cells assessed as rescue of LC3-II accumulation at 25 uM incubated for 48 hrs in presence of chloroquine by Western blot analysis. In kind it is functional, cell-based.
Series [19] deals with Huh-7. Kind of series: Induction of apoptosis in human Huh-7 cells assessed as increase in Bcl-2 expression at upto 25 nM incubated for 48 hrs by Western blot analysis. In kind it is functional, cell-based.
The test system of series [20] is Huh-7. Kind of series: Induction of apoptosis in human Huh-7 cells assessed as early apoptotic cells at 25 nM incubated for 48 hrs in presence of chloroquine by Annexin V-FITC/PI staining based flow cytometry method (reference value: 2.8%). In kind it is functional.
Series [21] relates to Hep 3B2. Nature of the series: Induction of autophagic flux in human Hep3B cells harbouring mCherry-egfp-LC3 assessed as reduction in number of red puncta ratio at 25 nM incubated for 15 mins in presence of chloroquine by laser scanning confocal microscopic analysis. In kind it is functional, cell-based.
The subject of series [22] is Hep 3B2. Nature of the series: Induction of apoptosis in human Hep3B cells assessed as upregulation of PARP level […] incubated for 48 hrs in presence of 4,6-dimorpholino-N-(4-nitrophenyl)-1,3,5-triazin-2-amine by immunoblot analysis. In kind it is functional, cell-based.
Series [23] concerns Hep 3B2. Kind of series: Induction of morphological changes in human Hep3B cells assessed as round cell morphology at upto 25 nM incubated for 48 hrs by bright field imaging analysis. In kind it is functional, cell-based.
Series [24] in a line: Toxicity in mouse assessed as effect on serum AST level at 5 mg/kg,ip administered every second day for 3 weeks by H and E staining based microscopic method. It is filed as organism-based. The following applies: in vivo, 504 h.
Series [25] has as its system Hep 3B2. Nature of the series: Antitumor activity against human Hep3B cells xenografted in nude mouse model assessed as downregulation of ULK1 phosphorylation expression expression at 5 mg/kg,ip administered every second day for 3 weeks by Western blot analysis. It is filed as functional, organism-based.
The subject of series [26] is Hep 3B2. Nature of the series: Induction of apoptosis in human Hep3B cells assessed as necrotic cells at 15 nM incubated for 48 hrs by Annexin V-FITC/PI staining based flow cytometry method (reference value: 0.2%). It is filed as functional.
Series [27] concerns Hep 3B2. Kind of series: Induction of autophagic flux in human Hep3B cells assessed as increase in LC3-II expression at upto 25 nM incubated for 48 hrs by Western blot analysis. It is filed as functional, cell-based.
Series [28] has as its system Hep 3B2. Kind of series: Induction of apoptosis in human Hep3B cells assessed as increase in cleaved PARP level at 25 nM incubated for 48 hrs in presence of chloroquine by immunoblot analysis. In kind it is functional, cell-based.
Series [29] has as its system Huh-7. Nature of the series: Induction of autophagic flux in human Huh-7 cells harbouring mCherry-egfp-LC3 assessed as increase in red puncta at 25 nM incubated for 15 mins by laser scanning confocal microscopic analysis. In kind it is functional, cell-based.
The test system of series [30] is Huh-7. Nature of the series: Induction of apoptosis in human Huh-7 cells assessed as upregulation of cleaved PARP level […] incubated for 48 hrs in presence of 4,6-dimorpholino-N-(4-nitrophenyl)-1,3,5-triazin-2-amine by immunoblot analysis. In kind it is functional, cell-based.
The subject of series [31] is Huh-7. Nature of the series: Induction of autophagic flux in human Huh-7 cells harbouring mCherry-egfp-LC3 assessed as reduction in number of yellow puncta ratio at 25 nM incubated for 15 mins in presence of chloroquine by laser scanning confocal microscopic analysis. It is filed as functional, cell-based.
The subject of series [32] is Huh-7. Kind of series: Induction of apoptosis in human Huh-7 cells assessed as reduction in bcl-2 level […] incubated for 48 hrs in presence of 4,6-dimorpholino-N-(4-nitrophenyl)-1,3,5-triazin-2-amine by immunoblot analysis. In kind it is functional, cell-based.
Series [33] deals with Huh-7. Kind of series: Induction of apoptosis in human Huh-7 cells assessed as early apoptotic cells at 25 nM measured after 48 hrs in presence of z-VAD-FMK by annexin V-FITC/Propidium iodide staining based flow cytometric analysis (reference value: 2.2%). In kind it is functional.

SMILES strings stand for the structures. Active and inactive are the calls of the source. No cut-off for these calls is given here.

With `CCN(CC)CCCC(C)Nc1ccnc2cc(Cl)ccc12` (stereo not drawn) [CHLOROQUINE], the Activity in the series with Hep 3B2 [1] was found to be 4.4%. Besides, the result in the series on Hep 3B2 [2], with Hep 3B2 [3] and with Huh-7 [4] was Active.
In the case of `C[C@]12CC[C@H](O)C[C@H]1CC[C@@H]1[C@@H]2[C@H](O)C[C@]2(C)[C@@H](c3ccc(=O)oc3)CC[C@]12O` [GAMABUFOTALIN], the result with Hep 3B2 [5], in the series on Hep 3B2 [7], in the series with Hep 3B2 [8], with Huh-7 [9], with Huh-7 [10] and in the series with Hep 3B2 [16] was Active. Also, the outcome in the series with Hep 3B2 [17], with Huh-7 [18], in the series on Huh-7 [19], in the series with Hep 3B2 [21], in the series with Hep 3B2 [22] and in the series on Hep 3B2 [23] was Active. For the same molecule, the outcome in the series with Hep 3B2 [25], in the series on Hep 3B2 [27], in the series on Hep 3B2 [28], with Huh-7 [29], in the series with Huh-7 [30] and in the series with Huh-7 [31] was Active. In addition, the result in the series on Huh-7 [32] was Active. In addition, the Activity is on record as 7.7% in the series with Huh-7 [6]; 7.4% with Huh-7 [14]; 6.6% with Huh-7 [15]; 12.1% with Huh-7 [20]; “Non-Toxic” in series [24]; 0.5% in the series with Hep 3B2 [26]. In addition, the Activity in the series with Huh-7 [33] stood at 3.3%. The viability at 0.025 µM with Huh-7 [11] turned out to be 72%; in the series on Hep 3B2 [12], 77.2%; with Huh-7 [13] it was 89%.
